Several values for one entry are separate records, joined by “and”; a condition that tells them apart may be missing. Identical values can stand only once. Records with an inconclusive call do not appear.
Test system: Lewis lung carcinoma i.m., BDF1 mice, T/C %
Experiment: NCI In Vivo Anticancer Drug Screen. Data for tumor model Lewis Lung Carcinoma (intramuscular) in B6D2F1 (BDF1) mice
Description: The antitumor activity of compounds was measured in mice bearing transplantable tumors. Survival or tumor size were measured and the results are expressed as the measurement made in the treated group (T) divided by the measurement made in the vehicle treated control group (C). The tumor model used in this assay is Lewis Lung Carcinoma (intramuscular) in B6D2F1 (BDF1) mice

N[C@H](C(=O)O)[C@H]1ON=C(Cl)[C@@H]1O
T/C (endpoint: median survival time, dose: 8.0 mg/kg/injection, schedule: Q01DX013 (ip), vehicle: saline, higher = longer survival): 92 % of control | T/C (endpoint: median survival time, dose: 16.0 mg/kg/injection, schedule: Q01DX013 (ip), vehicle: saline, higher = longer survival): 107 % of control

CN(N=O)C(N)=O
T/C (endpoint: median survival time, dose: 3.12 mg/kg/injection, schedule: Q01DX015 (ip), vehicle: saline, higher = longer survival): 98 % of control | T/C (endpoint: median survival time, dose: 6.25 mg/kg/injection, schedule: Q01DX015 (ip), vehicle: saline, higher = longer survival): 103 % of control | T/C (endpoint: median survival time, dose: 6.25 mg/kg/injection, schedule: Q07DX003 (ip), vehicle: saline, higher = longer survival): 94 % of control | T/C (endpoint: median survival time, dose: 12.5 mg/kg/injection, schedule: Q01DX015 (ip), vehicle: saline, higher = longer survival): 115 % of control | T/C (endpoint: median survival time, dose: 12.5 mg/kg/injection, schedule: Q07DX003 (ip), vehicle: saline, higher = longer survival): 93 % of control | T/C (endpoint: median survival time, dose: 25.0 mg/kg/injection, schedule: Q07DX003 (ip), vehicle: saline, higher = longer survival): 86 % of control

CSc1nc(N)cc(NC(=O)CCl)n1
T/C (endpoint: mean tumor weight (est.), dose: 25.0 mg/kg/injection, schedule: Q01DX011 (ip), vehicle: saline, higher = larger tumour): 92 % of control | T/C (endpoint: mean tumor weight (est.), dose: 50.0 mg/kg/injection, schedule: Q01DX011 (ip), vehicle: saline, higher = larger tumour): 69 % of control | T/C (endpoint: mean tumor weight (est.), dose: 100.0 mg/kg/injection, schedule: Q01DX011 (ip), vehicle: saline, higher = larger tumour): 35 % of control

CS(=O)(=O)OCCCCOS(C)(=O)=O
T/C (endpoint: mean tumor weight, dose: 12.5 mg/kg/injection, schedule: Q01DX011 (ip), vehicle: Klucel (hydroxypropylcellulose) (HPC), higher = larger tumour): 88 % of control | T/C (endpoint: mean tumor weight, dose: 25.0 mg/kg/injection, schedule: Q01DX011 (ip), vehicle: Klucel (hydroxypropylcellulose) (HPC), higher = larger tumour): 109 % of control | T/C (endpoint: median survival time, dose: 12.5 mg/kg/injection, schedule: Q01DX011 (ip), vehicle: Klucel (hydroxypropylcellulose) (HPC), higher = longer survival): 89 % of control

Cc1c(N)nc(C(CC(N)=O)NCC(N)C(N)=O)nc1C(=O)NC(C(=O)NC(C)C(O)C(C)C(=O)NC(C(=O)NCCc1nc(-c2nc(C(=O)NCCCCN=C(N)N)cs2)cs1)C(C)O)C(OC1OC(CO)C(O)C(O)C1OC1OC(CO)C(O)C(OC(N)=O)C1O)c1cnc[nH]1 (configuration not stated)
T/C (endpoint: median survival time, dose: 3.9 mg/kg/injection, schedule: Q01DX011 (ip), vehicle: saline, higher = longer survival): 122 % of control | T/C (endpoint: median survival time, dose: 6.5 mg/kg/injection, schedule: Q01DX011 (ip), vehicle: saline, higher = longer survival): 112 % of control | T/C (endpoint: median survival time, dose: 10.8 mg/kg/injection, schedule: Q01DX011 (ip), vehicle: saline, higher = longer survival): 150 % of control | T/C (endpoint: median survival time, dose: 18.0 mg/kg/injection, schedule: Q01DX011 (ip), vehicle: saline, higher = longer survival): 170 % of control | T/C (endpoint: median survival time, dose: 30.0 mg/kg/injection, schedule: Q01DX011 (ip), vehicle: saline, higher = longer survival): 168 % of control

Nc1ccn(C2OC(COP(=O)(O)O)C(O)C2O)c(=O)n1 (configuration not stated)
T/C (endpoint: mean tumor weight, dose: 19.6 mg/kg/injection, schedule: Q01DX011 (ip), vehicle: saline, higher = larger tumour): 68 % of control | T/C (endpoint: median survival time, dose: 19.6 mg/kg/injection, schedule: Q01DX011 (ip), vehicle: saline, higher = longer survival): 94 % of control and 96 % of control | T/C (endpoint: median survival time, dose: 32.6 mg/kg/injection, schedule: Q01DX011 (ip), vehicle: saline, higher = longer survival): 43 % of control | T/C (endpoint: median survival time, dose: 54.0 mg/kg/injection, schedule: Q01DX011 (ip), vehicle: saline, higher = longer survival): 42 % of control | T/C (endpoint: median survival time, dose: 90.0 mg/kg/injection, schedule: Q01DX011 (ip), vehicle: saline, higher = longer survival): 39 % of control

COc1cc(OC)c(OC)cc1/C=C\c1ccnc2ccccc12
T/C (endpoint: mean tumor weight (est.), dose: 50.0 mg/kg/injection, schedule: Q01DX011 (ip), vehicle: saline with Tween-80, higher = larger tumour): 60 % of control | T/C (endpoint: mean tumor weight (est.), dose: 100.0 mg/kg/injection, schedule: Q01DX011 (ip), vehicle: saline with Tween-80, higher = larger tumour): 51 % of control | T/C (endpoint: mean tumor weight (est.), dose: 200.0 mg/kg/injection, schedule: Q01DX011 (ip), vehicle: saline with Tween-80, higher = larger tumour): 56 % of control | T/C (endpoint: mean tumor weight (est.), dose: 400.0 mg/kg/injection, schedule: Q01DX011 (ip), vehicle: saline with Tween-80, higher = larger tumour): 34 % of control | T/C (endpoint: median survival time, dose: 50.0 mg/kg/injection, schedule: Q01DX011 (ip), vehicle: saline with Tween-80, higher = longer survival): 105 % of control | T/C (endpoint: median survival time, dose: 100.0 mg/kg/injection, schedule: Q01DX011 (ip), vehicle: saline with Tween-80, higher = longer survival): 103 % of control | T/C (endpoint: median survival time, dose: 200.0 mg/kg/injection, schedule: Q01DX011 (ip), vehicle: saline with Tween-80, higher = longer survival): 86 % of control | T/C (endpoint: median survival time, dose: 400.0 mg/kg/injection, schedule: Q01DX011 (ip), vehicle: saline with Tween-80, higher = longer survival): 100 % of control

— PubChem BioAssay AID272 (DTP/NCI, 2004)
